Assay [1] relates to Food-Deprived Rats. The experiment in a line: Rodent feeding model: measurement of food intake in food-deprived rats. In kind it is in vivo, Male Long-Evans rats. The following applies: for Food Consumption (avg. grams) 0-2 h / Food Consumption (avg. grams) 0-4 h / Food Consumption (avg. grams) 0-6 h / Food Consumption (avg. grams) 2-6 h: 18 h fasted rats; for Food Consumption 0-2 h (% chg.) / Food Consumption 0-4 h (% chg.) / Food Consumption 0-6 h (% chg.) / Food Consumption 2-6 h (% chg.): change vs vehicle, negative = reduction. From the text: Measurement of Food Intake in Food-Deprived Rats
Male Long-Evans rats (180-200 grams) are housed individually and are maintained on once-a-day feeding schedule (i.e., 10 a.m. until 4 p.m.) for five days following quarantine to allow the animals to acclimate to feeding on powdered chow (#5002 PMI Certified Rodent Meal) during the allotted time. The chow is made available in a open jar, anchored in the cage by a wire, with a metal follower covering the food to minimize spillage. Water is available ad-libitum.
Animals are fasted for 18 hours prior to testing. At the end of the fasting period, animal are administered either compounds of the invention or vehicle. Vehicle and test compounds are administered either orally (5 mL/kg) 60 minutes prior to the experiment, or 30 minutes prior when given subcutaneously (1 mL/kg) or intraperitoneally (1 mL/kg). Compounds of the invention are administered orally as a suspension in aqueous 0.5% methylcellulose-0.4% Tween 80, or intraperitoneally as a solution or suspension in PEG 200; compound concentrations typically range from 1 mg/kg to 100 mg/kg, preferably from 10-30 mg/kg. Food intake is measured at 2, 4, and 6 hours after administration by weighing the special jar containing the food before the experiment and at the specified times. Upon completion of the experiment, all animals are given a one-week washout period before retesting.
Percent reduction of food consumption is calculated subtracting the grams of food consumed by the treated group from the grams of food consumed by the control group divided by the grams of food consumed by the control group, multiplied by 100. A negative value indicates a reduction in food consumption and a positive value indicates an increase in food consumption. [formula]

The target in assay [2] is T1, human neuropeptide Y5 receptor (Homo sapiens, UniProt Q15761).
T1 construct: expressed in transfected cells; membranes
T1 sequence (Q15761 1-445): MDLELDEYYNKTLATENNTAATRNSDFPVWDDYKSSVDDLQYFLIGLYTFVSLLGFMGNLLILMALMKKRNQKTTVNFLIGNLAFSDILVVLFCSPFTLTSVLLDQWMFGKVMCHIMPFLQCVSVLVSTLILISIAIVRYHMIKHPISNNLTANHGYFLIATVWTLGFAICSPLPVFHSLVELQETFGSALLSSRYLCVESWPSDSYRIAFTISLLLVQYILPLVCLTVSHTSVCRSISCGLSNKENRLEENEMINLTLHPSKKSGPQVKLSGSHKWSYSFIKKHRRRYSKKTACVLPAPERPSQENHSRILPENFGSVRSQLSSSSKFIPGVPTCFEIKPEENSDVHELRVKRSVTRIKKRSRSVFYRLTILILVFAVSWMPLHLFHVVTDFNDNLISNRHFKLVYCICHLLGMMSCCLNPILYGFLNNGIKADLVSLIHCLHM
The experiment in a line: NPY5 HTS centrifugation assay: competition with 125I-PYY for binding to membranes of NPY5-transfected HEK293 cells. The following applies: for inhibition at 0.3 µM: % inhibition of 125I-PYY binding at 300 nM compound, read-out: % Inh @ 300 nM; for inhibition at 3 µM: % inhibition of 125I-PYY binding at 3 uM compound. How it is done: NPY5 HTS Centrifugation Assay
The compounds described in this invention were evaluated for binding to the human neuropeptide Y5 receptor.
The human NPY5 receptor cDNA (Genbank Accession number U66275) was inserted into the vector pClneo (Invitrogen) and transfected into human embryonic kidney cells (HEK-293) via calcium phosphate method (Cullen 1987). Stably transfected cells were selected with G-418 (600 μg/mL). Stably transfected cells served as the source for the membranes for the NPY5 receptor binding assay.
NPY5-transfected HEK293 cells were grown to confluence in 150 cm^2 culture dishes. Cells were washed once with phosphate-buffered saline (Gibco Cat# 14040-133). Cells were then incubated in phosphate-buffered saline without calcium and without magnesium, supplemented with 2 mM EDTA. Cells were incubated for 10 minutes at room temperature and the cells were collected by repetitive pipeting. Cells were formed into pellets and then frozen at −80° C. until needed. Frozen pellets were homogenized with a polytron at full speed for 12 seconds in a homogenization buffer (20 mM Tris HCl, 5 mM EDTA, pH 7.4). Homogenates were centrifuged for 5 minutes at 4° C. at 200 g. Supernatants were transferred to corex tubes and centrifuged for 25 minutes at 28,000 g. Pellets were re-suspended in Binding (20 mM HEPES, 10 mM NaCl, 0.22 mM KH2PO4, 1.3 mM CaCl2, 0.8 mM MgSO4, pH 7.4). Membranes were kept on ice until use.
A competition binding assay, known to those skilled in the art, was used in which compounds of formula A compete with ^125I-PYY for binding to cell membranes. In simple terms, the less ^125I-PYY bound to the membranes implies that a compound is a good inhibitor (competitor). Bound ^125I-PYY is determined by centrifugation of membranes, aspirating supernatant, washing away residual ^125I-PYY and subsequently counting the bound sample in a gcounter.
Compounds to be tested were prepared as 10× stocks in binding buffer and added first to assay tubes (RIA vials, Sarstedt). Twenty (20) μL of each 10× compound stock is pipeted into vials and 80 μL of ^125I-PYY (NEN catalog number NEX240), which has been diluted to a concentration of 200 pM in 0.25% BSA in binding buffer, is added to the compound tubes (final concentration of ^125I-PYY is 80 pM). To each tube is added 100 μL of membranes and the mixture is agitated by pipeting 2 times. Samples are incubated for 1 hr at room temperature. Aluminum cast plates (Sarstedt) containing the vials are then centrifuged 10 minutes at 3200 rpm in a Sorvall RT6000. Supernatant is then aspirated. To each vial 400 μL PBS is added and this is then aspirated again. Vials are then put in carrier polypropylene 12×75 tube and counted in gamma counter (Packard). Non-specific binding is determined in the presence of 300 nM NPY. Percent inhibition of ^125I-PYY binding is calculated by subtracting non-specific binding from the test samples (compound (I)), taking these counts and dividing by total binding, and multiplying by 100. Inhibitory concentration values (IC50) of compounds that show appreciable inhibition of ^125I-PYY binding are calculated by obtaining percent inhibition of ^125I-PYY binding values at different concentrations of the test compound, and using a graphing program such as GraphPad Prism (San Diego, Calif.) to calculate the concentration of test compound that inhibits fifty-percent of ^125I-PYY binding (Table 4).

SMILES strings stand for the structures. Where a name gives a salt, the structure may show the parent alone.

In the case of `COc1ccc2c(c1)CC[C@@H]1N=C(NC[C@H]3CC[C@H](CNS(=O)(=O)c4ccccc4)CC3)C[C@H]21` (relative stereo) [Compound 8, N-[[trans-4-[[(cis-3a,4,5,9b-tetrahydro-7-methoxy-1H-benz[e]indol-2-yl)amino]methyl]cyclohexyl]methyl]benzenesulfonamide], in assay [1] (10 mg/kg i.p.), the “Food Consumption (avg. grams) 0-2 h” value turned out to be 4.38 g, the “Food Consumption 0-2 h (% chg.)” value is recorded as “(−52%)”, the “Food Consumption (avg. grams) 0-4 h” value is recorded as 7.88 g and the “Food Consumption 0-4 h (% chg.)” value is recorded as “(−38%)”. In addition, in assay [1] (10 mg/kg i.p.), the “Food Consumption (avg. grams) 0-6 h” value is 12.00 g, the “Food Consumption 0-6 h (% chg.)” value was “(−43%)”, the “Food Consumption (avg. grams) 2-6 h” value is given as 7.63 g and the “Food Consumption 2-6 h (% chg.)” value is given as “(−37%)”. Further, in assay [2], the inhibition at 0.3 µM stood at 85% and the inhibition at 3 µM turned out to be 98%.

As to `O=S(=O)(NC[C@H]1CC[C@H](CNC2=N[C@@H]3CCc4cc(O)ccc4[C@@H]3C2)CC1)c1ccccc1` [Compound 10, N-[[trans-4-[[(cis-3a,4,5,9b-ttrahydro-7-hydroxy-1H-benz[e]indol-2-yl)amino]methyl]cyclohexyl]methyl]benzenesulfonamide hydrochloride], in assay [1] (30 mg/kg i.p.), the “Food Consumption (avg. grams) 0-2 h” value came to 4.38 g, the “Food Consumption 0-2 h (% chg.)” value is recorded as “(−57%)”, the “Food Consumption (avg. grams) 0-4 h” value is reported as 6.43 g and the “Food Consumption 0-4 h (% chg.)” value is “(−53%)”. For the same compound, in assay [1] (30 mg/kg i.p.), the “Food Consumption (avg. grams) 0-6 h” value is 10.75 g, the “Food Consumption 0-6 h (% chg.)” value is recorded as “(−49%)”, the “Food Consumption (avg. grams) 2-6 h” value amounted to 6.37 g and the “Food Consumption 2-6 h (% chg.)” value was “(−41%)”. Moreover, in assay [2], the inhibition at 0.3 µM was found to be 74% and the inhibition at 3 µM is 97%.

These data come from patent US6841552B1, “3a,4,5,9b-tetrahydro-1H-benz[e]indol-2-yl amine-derived neuropeptide Y receptors ligands useful in the treatment of obesity and other disorders” (Ortho-McNeil Pharmaceutical, Inc., priority 1999, dated 2005).
